System: SK-BR-3
Assay: normalised response (% of control), CellTiter-Glo; higher = more viable cells (100 = DMSO, 0 = benzethonium chloride kill control)
Details: incubation time: 72 h
Procedure: (§1)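 DSRT, 72 h incubation, CellTox Green / CellTiter-Glo readout. Signal is normalised to DMSO and benzethonium chloride controls. Value is the normalised response at dose 3.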

First: COc1cccc2cc(-c3nc([C@H]4CC[C@H](C(=O)O)CC4)n4ncnc(N)c34)[nH]c12 [OSI-027] (100 nM)
Second: N#CC[C@H](C1CCCC1)n1cc(-c2ncnc3[nH]ccc23)cn1 [Ruxolitinib] (100 nM)
The normalised response of the first is lower: 77.3% for the first, 88.4% for the second.

System: DU-4475
Assay: as above
Details: incubation time: 72 h
Procedure: as §1

Going from `O=C(c1ccc(C(=O)N2CCC(N3CCCC3)CC2)c(Nc2ccccc2)c1)N1CCC(N2CCCC2)CC1` [UNC1215] (300 nM) to `CN1CC[C@H](c2c(O)cc(O)c3c(=O)cc(-c4ccccc4Cl)oc23)[C@H](O)C1` [Alvocidib] (100 nM), the normalised response falls from 99.5% to 94.1%.

First: OC[C@H]1O[C@@H](n2cnc3c2N=CNC[C@H]3O)C[C@@H]1O [Pentostatin] (100 nM)
Second: Nc1nc(Cl)nc2c1ncn2[C@H]1C[C@H](O)[C@@H](CO)O1 [Cladribine] (10 nM)
The normalised response of the first is higher: 106% for the first, 102% for the second.

Compared with `COc1cccc2c1C(=O)c1c(O)c3c(c(O)c1C2=O)C[C@@](O)(C(=O)CO)C[C@@H]3O[C@H]1C[C@H](N)[C@H](O)[C@H](C)O1` [Doxorubicin] (10 nM), `COc1cccc2cc(-c3nc([C@H]4CC[C@H](C(=O)O)CC4)n4ncnc(N)c34)[nH]c12` [OSI-027] (100 nM) is lower in normalised response: 104% for the first, 100% for the second.

Going from `CC(=O)O[C@]1(C(C)=O)CC[C@H]2[C@@H]3C=C(C)C4=CC(=O)CC[C@]4(C)[C@H]3CC[C@@]21C` [Megestrol acetate] (100 nM) to `CN(C)C/C=C/C(=O)Nc1cc2c(Nc3ccc(F)c(Cl)c3)ncnc2cc1O[C@H]1CCOC1` [Afatinib] (10 nM), the normalised response rises from 99.4% to 106%.

`N#CC[C@H](C1CCCC1)n1cc(-c2ncnc3[nH]ccc23)cn1` [Ruxolitinib] (100 nM) gave a normalised response of 95.8%.

System: CAL-85-1
Assay: as above
Details: incubation time: 72 h
Procedure: as §1

Going from `O=C(c1ccc(C(=O)N2CCC(N3CCCC3)CC2)c(Nc2ccccc2)c1)N1CCC(N2CCCC2)CC1` [UNC1215] (300 nM) to `CN1CC[C@H](c2c(O)cc(O)c3c(=O)cc(-c4ccccc4Cl)oc23)[C@H](O)C1` [Alvocidib] (100 nM), the normalised response rises from 99.5% to 104%.

First: OC[C@H]1O[C@@H](n2cnc3c2N=CNC[C@H]3O)C[C@@H]1O [Pentostatin] (100 nM)
Second: Nc1nc(Cl)nc2c1ncn2[C@H]1C[C@H](O)[C@@H](CO)O1 [Cladribine] (10 nM)
The normalised response of the first is lower: 100% for the first, 101% for the second.

Going from `COc1cccc2c1C(=O)c1c(O)c3c(c(O)c1C2=O)C[C@@](O)(C(=O)CO)C[C@@H]3O[C@H]1C[C@H](N)[C@H](O)[C@H](C)O1` [Doxorubicin] (10 nM) to `COc1cccc2cc(-c3nc([C@H]4CC[C@H](C(=O)O)CC4)n4ncnc(N)c34)[nH]c12` [OSI-027] (100 nM), the normalised response falls from 103% to 96.6%.

First: CC(=O)O[C@]1(C(C)=O)CC[C@H]2[C@@H]3C=C(C)C4=CC(=O)CC[C@]4(C)[C@H]3CC[C@@]21C [Megestrol acetate] (100 nM)
Second: CN(C)C/C=C/C(=O)Nc1cc2c(Nc3ccc(F)c(Cl)c3)ncnc2cc1O[C@H]1CCOC1 [Afatinib] (10 nM)
The normalised response of the first is higher: 104% for the first, 97% for the second.

With `N#CC[C@H](C1CCCC1)n1cc(-c2ncnc3[nH]ccc23)cn1` [Ruxolitinib] (100 nM) the normalised response was 95.1%.

System: HCC1143
Assay: as above
Details: incubation time: 72 h
Procedure: as §1

Going from `O=C(c1ccc(C(=O)N2CCC(N3CCCC3)CC2)c(Nc2ccccc2)c1)N1CCC(N2CCCC2)CC1` [UNC1215] (300 nM) to `CN1CC[C@H](c2c(O)cc(O)c3c(=O)cc(-c4ccccc4Cl)oc23)[C@H](O)C1` [Alvocidib] (100 nM), the normalised response rises from 95% to 102%.

Compared with `OC[C@H]1O[C@@H](n2cnc3c2N=CNC[C@H]3O)C[C@@H]1O` [Pentostatin] (100 nM), `Nc1nc(Cl)nc2c1ncn2[C@H]1C[C@H](O)[C@@H](CO)O1` [Cladribine] (10 nM) is lower in normalised response: 104% for the first, 101% for the second.

Compared with `COc1cccc2c1C(=O)c1c(O)c3c(c(O)c1C2=O)C[C@@](O)(C(=O)CO)C[C@@H]3O[C@H]1C[C@H](N)[C@H](O)[C@H](C)O1` [Doxorubicin] (10 nM), `COc1cccc2cc(-c3nc([C@H]4CC[C@H](C(=O)O)CC4)n4ncnc(N)c34)[nH]c12` [OSI-027] (100 nM) is lower in normalised response: 109% for the first, 101% for the second.

Compared with `CC(=O)O[C@]1(C(C)=O)CC[C@H]2[C@@H]3C=C(C)C4=CC(=O)CC[C@]4(C)[C@H]3CC[C@@]21C` [Megestrol acetate] (100 nM), `CN(C)C/C=C/C(=O)Nc1cc2c(Nc3ccc(F)c(Cl)c3)ncnc2cc1O[C@H]1CCOC1` [Afatinib] (10 nM) is higher in normalised response: 95.7% for the first, 106% for the second.

`N#CC[C@H](C1CCCC1)n1cc(-c2ncnc3[nH]ccc23)cn1` [Ruxolitinib] (100 nM) was tested, and the normalised response was 98.2%.

System: MDA-MB-453
Assay: as above
Details: incubation time: 72 h
Procedure: as §1

First: O=C(c1ccc(C(=O)N2CCC(N3CCCC3)CC2)c(Nc2ccccc2)c1)N1CCC(N2CCCC2)CC1 [UNC1215] (300 nM)
Second: CN1CC[C@H](c2c(O)cc(O)c3c(=O)cc(-c4ccccc4Cl)oc23)[C@H](O)C1 [Alvocidib] (100 nM)
The normalised response of the first is lower: 104% for the first, 122% for the second.

Going from `OC[C@H]1O[C@@H](n2cnc3c2N=CNC[C@H]3O)C[C@@H]1O` [Pentostatin] (100 nM) to `Nc1nc(Cl)nc2c1ncn2[C@H]1C[C@H](O)[C@@H](CO)O1` [Cladribine] (10 nM), the normalised response rises from 101% to 105%.

First: COc1cccc2c1C(=O)c1c(O)c3c(c(O)c1C2=O)C[C@@](O)(C(=O)CO)C[C@@H]3O[C@H]1C[C@H](N)[C@H](O)[C@H](C)O1 [Doxorubicin] (10 nM)
Second: COc1cccc2cc(-c3nc([C@H]4CC[C@H](C(=O)O)CC4)n4ncnc(N)c34)[nH]c12 [OSI-027] (100 nM)
The normalised response of the first is higher: 106% for the first, 74.2% for the second.

Going from `CC(=O)O[C@]1(C(C)=O)CC[C@H]2[C@@H]3C=C(C)C4=CC(=O)CC[C@]4(C)[C@H]3CC[C@@]21C` [Megestrol acetate] (100 nM) to `CN(C)C/C=C/C(=O)Nc1cc2c(Nc3ccc(F)c(Cl)c3)ncnc2cc1O[C@H]1CCOC1` [Afatinib] (10 nM), the normalised response rises from 86.9% to 88.6%.

For `N#CC[C@H](C1CCCC1)n1cc(-c2ncnc3[nH]ccc23)cn1` [Ruxolitinib] (100 nM), the normalised response was 85.7%.

System: MDA-MB-468
Assay: as above
Details: incubation time: 72 h
Procedure: as §1

Going from `O=C(c1ccc(C(=O)N2CCC(N3CCCC3)CC2)c(Nc2ccccc2)c1)N1CCC(N2CCCC2)CC1` [UNC1215] (300 nM) to `CN1CC[C@H](c2c(O)cc(O)c3c(=O)cc(-c4ccccc4Cl)oc23)[C@H](O)C1` [Alvocidib] (100 nM), the normalised response rises from 90% to 91.9%.

From the supplement of paper PMC4862054
